Assay results from PubChem BioAssay (NCI).
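Assay format: 96-well plates, 48-hour exposure. GI50 = concentration required for 50% inhibition of growth. At the TGI there is no net growth.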

Tests used:
Experiment in all cases: growth of human tumour cells (NCI), 48 h
CCRF-CEM leukemia = system: CCRF-CEM leukemia
COLO 205 colon = system: COLO 205 colon
DU-145 prostate = system: DU-145 prostate
EKVX NSCLC = system: EKVX NSCLC
HOP-92 NSCLC = system: HOP-92 NSCLC
MOLT-4 leukemia = system: MOLT-4 leukemia
NCI-H23 lung = system: NCI-H23 lung
RPMI-8226 leukemia = system: RPMI-8226 leukemia
SK-OV-3 ovarian = system: SK-OV-3 ovarian
SNB-19 CNS = system: SNB-19 CNS
T-47D breast = system: T-47D breast
UACC-257 melanoma = system: UACC-257 melanoma
HL-60(TB) leukemia = system: HL-60(TB) leukemia
IGROV1 ovarian = system: IGROV1 ovarian
LOX IMVI melanoma = system: LOX IMVI melanoma
RXF 393 renal = system: RXF 393 renal
SR leukemia = system: SR leukemia

Row | SMILES | TGI (CCRF-CEM leukemia) | TGI (COLO 205 colon) | TGI (DU-145 prostate) | TGI (EKVX NSCLC) | TGI (HOP-92 NSCLC) | TGI (MOLT-4 leukemia) | TGI (NCI-H23 lung) | TGI (RPMI-8226 leukemia) | TGI (SK-OV-3 ovarian) | TGI (SNB-19 CNS) | TGI (T-47D breast) | TGI (UACC-257 melanoma) | TGI (HL-60(TB) leukemia) | TGI (IGROV1 ovarian) | TGI (LOX IMVI melanoma) | TGI (RXF 393 renal) | TGI (SR leukemia) | GI50 (IGROV1 ovarian) | GI50 (RPMI-8226 leukemia)
1 | O=[N+]([O-])/C(C(Cl)=C(Cl)Cl)=C1\Nc2ccc([N+](=O)[O-])cc2N1 | 56.2 µM | > 100 µM | > 100 µM | > 100 µM | > 100 µM | > 100 µM | > 100 µM | > 100 µM | > 100 µM | > 100 µM | > 100 µM | > 100 µM |  |  |  |  |  |  | 
2 | C[C@]12CCC(O)CC1=CC[C@@H]1[C@@H]2CC[C@]2(C)C(O)[C@H](n3ccnc3)C[C@@H]12 (stereo not given in full) | > 100 µM | > 100 µM | > 100 µM | > 100 µM | > 100 µM | 80.1 µM | > 100 µM | > 100 µM |  | > 100 µM |  | > 100 µM | 38.3 µM | > 100 µM | > 100 µM | > 100 µM | > 100 µM |  | 
3 | O=C1CC(Br)c2c(Br)sc(Br)c21 (stereo not given) | 9.42 µM | 33.9 µM | 45.7 µM | 39 µM | 31.5 µM | 25.5 µM | 32 µM | 28 µM | 55.9 µM | 76.2 µM | 38.3 µM | 29.1 µM | 39.3 µM | 33.5 µM | 27.4 µM | 32.9 µM |  |  | 
4 | Cc1cc(S(=O)(=O)Nc2nc(N)nc(N3N=CCC3C)n2)c(SCC(=O)O)cc1Cl (stereo not given) | > 10 µM | > 10 µM | > 10 µM | > 10 µM |  | > 10 µM | > 10 µM | > 10 µM | > 10 µM | > 10 µM | > 10 µM | > 10 µM | > 10 µM | > 10 µM | > 10 µM | > 10 µM |  |  | 
5 | NCC(Cl)C(O)c1cnc(N)[nH]1 (stereo not given) | > 83.6 µM | 5.51 µM |  | 8.53 µM | 91.4 µM | 2.65 µM | 16 µM | 2.15 µM | > 44.6 µM | 19.3 µM |  | 32 µM | 25.4 µM | 4.34 µM | 16.8 µM | 4.7 µM |  |  | 
6 | CCN(CC)C(=O)c1cc(OC(C)C)ccc1-c1c(C)cc(OC(C)C)c(OC)c1OC | > 100 µM | > 100 µM |  | > 100 µM |  | > 100 µM | > 100 µM | > 100 µM | > 100 µM | > 100 µM |  |  | 96.4 µM | > 100 µM | > 100 µM | > 100 µM | > 100 µM |  | 
7 | CN(CCC(=O)N1CC(CCl)c2ccc([N+](=O)[O-])cc21)CCC(=O)N1CC(CCl)c2ccc([N+](=O)[O-])cc21 (stereo not given) | > 100 µM | 31.6 µM | > 100 µM | 42.7 µM |  | 24.2 µM | 29.3 µM | 13.9 µM | > 100 µM | > 100 µM | > 100 µM | 21.6 µM |  |  | 21.7 µM |  |  |  | 
8 | CC(=O)OC1C=C(C=O)C(O)(C=O)C2(C)CCCC(C)(C)C12 (stereo not given) | 0.706 µM | 2.75 µM |  | 6.13 µM | 2.98 µM | 0.629 µM | 4.92 µM | 1.5 µM | 8.68 µM | 12 µM |  | 5.68 µM | 0.895 µM | 6.05 µM | 2.93 µM | 1.01 µM |  |  | 
9 | O=C1c2c(Br)sc(Br)c2C(NC(=O)C(F)(F)F)C1O (stereo not given) | 56.3 µM | 33.4 µM | 39.4 µM | 39.5 µM | 35.9 µM | > 100 µM | 46.3 µM |  | 36.4 µM | 56.4 µM | 55.9 µM | 36.4 µM | > 100 µM | 42.3 µM | 44.5 µM | 27.5 µM |  |  | 
10 | Cc1cccc(N/C(=C(/C(Cl)=C(Cl)Cl)[N+](=O)[O-])n2nnc3ccccc32)c1 | > 100 µM | 32.8 µM |  | 39.6 µM |  | > 100 µM | 34.7 µM | > 100 µM | 49.9 µM | 34.3 µM | 56 µM | 49.3 µM |  |  |  |  |  |  | 
11 | CCOC(=O)C1(CO)CSCCSC1 | > 100 µM | > 100 µM | > 100 µM |  | > 100 µM | > 100 µM | > 100 µM |  | > 100 µM | > 100 µM |  | > 100 µM |  |  | > 100 µM | > 100 µM | > 100 µM |  | 
12 | Cc1ccc(-c2c(C#N)c(-c3ccccc3)n(NS(=O)(=O)c3ccc(C)cc3)c(=O)c2C#N)cc1 | 80.3 µM | > 100 µM |  | > 100 µM | > 100 µM | 54.5 µM |  | 31.6 µM | > 100 µM | > 100 µM |  | > 100 µM |  | > 100 µM | > 100 µM | > 100 µM |  |  | 
13 | OC1=C2c3ccccc3NC2Oc2cc(F)ccc21 (stereo not given) | 7.21 µM | 27.6 µM | 37.5 µM | 22.4 µM | 54.1 µM | 34.5 µM | 36 µM |  | 26.6 µM | 44.6 µM | 68.1 µM | 41.4 µM |  | > 100 µM | 39.3 µM | 38.3 µM |  |  | 
14 | CC(C)=CCc1c(O)cc(O)c2c1OC(c1ccc(O)cc1)C(O)C2=O (stereo not given) |  | > 100 µM |  | 56.3 µM | 39.7 µM |  | 45.8 µM |  | > 100 µM | > 100 µM |  | > 100 µM |  | 88.9 µM | 35.7 µM | 49.9 µM |  |  | 
15 | CC[C@@]1(O)C(=O)OCc2c1cc1n(c2=O)Cc2c-1nc1ccccc1c2/C=N\NC(=O)C[n+]1ccccc1 | > 100 µM | > 100 µM | 14.3 µM | > 100 µM | > 31.6 µM | 11.7 µM | 7.71 µM | > 100 µM | > 100 µM | 19.1 µM | 2.9 µM | > 84.5 µM | > 34.4 µM | > 100 µM | 6 µM | 2.79 µM |  |  | 
16 | CCC(C)C(=O)OC1C(=O)OC2CC3C(C)=CC(=O)C(O)C3(C)C3C4(O)OCC23C1C(C)C4O (stereo not given) | 0.0393 µM | 0.757 µM | 0.0977 µM |  | 0.205 µM |  | 0.0431 µM | 0.784 µM | 4.11 µM |  | 0.158 µM | 1.34 µM |  | 0.175 µM | 0.0154 µM |  |  |  | 
17 | Cc1[nH]c(=O)[nH]c(=O)c1/C=C/C(=O)NC(CO)CC(C)C (stereo not given) | > 375 µM | > 375 µM |  | > 375 µM | > 343 µM | > 211 µM | > 375 µM | > 375 µM | > 375 µM | > 375 µM |  | > 375 µM | > 375 µM | > 375 µM | > 375 µM | > 375 µM |  |  | 
18 | CCCCNC(=S)Nc1nc(C(=O)NNC(=S)NCC)cs1 | > 100 µM | > 100 µM | > 100 µM | > 100 µM |  | > 100 µM | > 100 µM | > 100 µM | > 100 µM |  | 71.3 µM | > 100 µM |  | > 100 µM | > 100 µM |  | > 100 µM |  | 
19 | C1=C(CC2=C[P+](c3ccccc3)(c3ccccc3)C=C(c3ccccc3)O2)OC(c2ccccc2)=C[P+]1(c1ccccc1)c1ccccc1 | 1.54 µM | 0.301 µM | 1.73 µM | 1.68 µM |  | 1.6 µM | 2.2 µM | 0.558 µM | 1.41 µM | 1.25 µM |  | 1.33 µM | 0.446 µM | 0.43 µM | 1.67 µM |  | 0.538 µM |  | 
20 | CCC1CN2CCc3cc(OC)c(OC)cc3C2CC1CC1c2cc(OC)c(OC)cc2CCN1C(=O)C(N)Cc1ccccc1 (stereo not given) | 10.2 µM |  |  | 4.37 µM | 6.41 µM | 1.78 µM | 7.64 µM | 6.07 µM | 17.8 µM | 6.98 µM |  | 11.6 µM | 4.8 µM |  | 10.9 µM | 4.37 µM | 11.4 µM |  | 
21 | COc1ccc(CC2Cc3ccccc3CCN2)cc1OC (stereo not given) | > 50 µM | 21.4 µM | > 50 µM | > 50 µM | > 50 µM | > 50 µM | > 50 µM | > 50 µM | > 50 µM | > 50 µM | > 50 µM | > 50 µM | > 50 µM | > 50 µM | > 50 µM | > 50 µM |  |  | 
22 | COc1ccc(C2C(C(=O)O)=C(CO)Oc3cc4c(cc32)OCO4)cc1 (stereo not given) |  | > 100 µM |  | > 100 µM | > 100 µM |  | > 100 µM | > 100 µM | > 100 µM | > 100 µM |  | > 100 µM |  | > 100 µM | > 100 µM | > 100 µM |  |  | 
23 | NCc1ccc(-c2ccc(CN)s2)s1 | > 100 µM | > 100 µM | > 100 µM | > 100 µM | > 100 µM | > 100 µM | > 100 µM | > 100 µM | > 100 µM | > 100 µM | > 100 µM | > 100 µM | > 100 µM | 76.3 µM | > 100 µM | > 100 µM |  |  | 
24 | COc1cc2c(cc1C)NC(=O)/C2=C/c1cccnc1 | > 56.8 µM | > 47.9 µM | 27.3 µM | 47 µM | 41.9 µM | 24.1 µM | 24.8 µM | 79.1 µM | 34.3 µM | 32.1 µM | 8.13 µM | 27.7 µM | 26.2 µM | > 100 µM | > 53.8 µM | 25 µM |  | 19.5 µM | 12.7 µM
25 | O=C1C2=Cc3ccccc3CCN2c2ccccc21 | 26.1 µM | > 56 µM | > 100 µM | > 94.5 µM | > 92.3 µM | 48 µM | > 100 µM | 23.3 µM |  | > 100 µM |  | > 79.9 µM | 72.4 µM | > 100 µM | 38.7 µM |  | 29.5 µM |  | 
